Laboratory results: patent publication EP0319906A2, “Novel quinoline derivatives, processes for preparation thereof and antibacterial agent containing them” (Dainippon Pharmaceutical Co., Ltd., priority 1987, dated 1989)
Values after ≈ are worked out from the molar mass of the structure shown.

Assays:
[1] = tested on: C. Trachomatics G/ur 1242; experiment: Antichlamydia activity, MIC in McCoy cells (inclusion bodies); type: cell-based; details: C. Trachomatics G/ur 1242; McCoy cells, 36 °C for 40-48 hours; calculated for free base; read-out: minimum inhibitory concentrations (MIC)
Procedure: (§1) The figures in the table show minimum inhibitory concentrations (MIC), (μg/ml), calculated for free base. Minimum inhibitory concentrations (MIC) were determined as follows. […] The cells were trypsinized and suspended in the same culture medium at a cell concentration of 1-2 x 10^5 cells/ml. One ml of the cell suspension was pipetted into flat-bottomed plastic tubes (14 mm in diameter) containing a cover slip (12 mm in diameter). The tubes were incubated in 5 % CO2-air at 36 °C for 20 hours. One-half ml of a chlamydial suspension (ca. 1-4 x 103 inclusion body forming units) was added into each tube, which was then centrifuged at 1500 x g for 60 minutes. The tubes were incubated for 1 hour at 36 °C. […] After further incubation at 36 °C for 40-48 hours, the cells on the cover glasses were stained with the Giemsa's solution. […] The MIC was defined as the lowest drug concentration where there were no inclusion bodies in all the cells on the cover slip.

[2] = tested on: C. Trachomatics G/ur 1317; experiment: as above; type: cell-based; details: C. Trachomatics G/ur 1317; McCoy cells, 36 °C for 40-48 hours; calculated for free base; read-out: minimum inhibitory concentrations (MIC)
Procedure: as §1

[3] = tested on: C. Trachomatics G/ur 1448; experiment: as above; type: cell-based; details: C. Trachomatics G/ur 1448; McCoy cells, 36 °C for 40-48 hours; calculated for free base; read-out: minimum inhibitory concentrations (MIC)
Procedure: as §1

C. Trachomatics G/ur 931 = experiment: as above; type: cell-based; details: C. Trachomatics G/ur 931; McCoy cells, 36 °C for 40-48 hours; calculated for free base; read-out: minimum inhibitory concentrations (MIC)
Procedure: as §1

in vivo = details: mouse, po, orally given to male mice (ddY), dead mice counted after 7 days, Behrens-Kaerber method, read-out: LD₅₀
Procedure: A suspension containing each of compounds of this invention in various concentrations was orally given to male mice (ddY) at a dose of 0.1 ml per 10 g of body weight. The number of dead mice was counted after 7 days, and the value of median lethal dose (LD₅₀, mg/kg) was calculated in accordance with the Behrens-Kaerber method.

SMILES: Cc1c(F)c(N2C[C@@H](C)N[C@@H](C)C2)c(F)c2c1c(=O)c(C(=O)O)cn2C1CC1 [Compound 1, 1-cyclopropyl-6,8-difluoro-5-methyl-7-(cis-3,5-demethyl-1-piperazinyl)-1,4-dihydro-4-oxoquinoline-3-carboxylic acid]
- MIC [1]: 0.025 µg/mL (≈ 0.0639 µM)
- MIC [2]: 0.013 µg/mL (≈ 0.0332 µM)
- MIC [3]: 0.025 µg/mL (≈ 0.0639 µM)
- MIC (C. Trachomatics G/ur 931): 0.013 µg/mL (≈ 0.0332 µM)
- LD50 at 168 h (in vivo): > 2000 mg/kg
